Calls of active or inactive are those of the source.
What was measured:
Coagulation factor XII = molecular target: T1, Coagulation factor XII (Homo sapiens, UniProt P00748); type: functional;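 note: activated factor XIIa alpha cleaving a fluorogenic AMC peptide substrate; inhibitor potency from loss of enzyme activity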
T1 sequence (P00748 whole entry): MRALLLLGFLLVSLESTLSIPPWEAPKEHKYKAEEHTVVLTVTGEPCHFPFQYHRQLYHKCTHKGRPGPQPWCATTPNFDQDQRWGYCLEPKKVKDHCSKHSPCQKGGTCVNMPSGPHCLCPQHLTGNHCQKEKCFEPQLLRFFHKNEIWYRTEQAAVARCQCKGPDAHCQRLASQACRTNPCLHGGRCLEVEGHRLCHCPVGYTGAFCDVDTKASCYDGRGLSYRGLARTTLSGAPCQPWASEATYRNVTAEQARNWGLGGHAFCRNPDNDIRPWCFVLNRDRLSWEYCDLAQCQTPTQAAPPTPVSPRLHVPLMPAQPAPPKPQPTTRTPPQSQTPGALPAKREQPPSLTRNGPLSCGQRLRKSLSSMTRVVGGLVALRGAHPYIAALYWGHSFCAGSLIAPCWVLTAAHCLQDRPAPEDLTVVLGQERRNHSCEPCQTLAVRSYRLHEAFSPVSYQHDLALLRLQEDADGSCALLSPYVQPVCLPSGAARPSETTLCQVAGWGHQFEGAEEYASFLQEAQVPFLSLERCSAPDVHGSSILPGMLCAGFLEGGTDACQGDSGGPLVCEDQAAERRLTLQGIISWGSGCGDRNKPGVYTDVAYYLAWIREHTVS

[1] = molecular target: T2, Zinc finger protein mex-5 (Caenorhabditis elegans, UniProt Q9XUB2); assay: potency of MEX-5 RNA-binding blockers – biochemical, C. elegans, fluorescence polarization, dose response (AID 1960)
T2 sequence (Q9XUB2 whole entry): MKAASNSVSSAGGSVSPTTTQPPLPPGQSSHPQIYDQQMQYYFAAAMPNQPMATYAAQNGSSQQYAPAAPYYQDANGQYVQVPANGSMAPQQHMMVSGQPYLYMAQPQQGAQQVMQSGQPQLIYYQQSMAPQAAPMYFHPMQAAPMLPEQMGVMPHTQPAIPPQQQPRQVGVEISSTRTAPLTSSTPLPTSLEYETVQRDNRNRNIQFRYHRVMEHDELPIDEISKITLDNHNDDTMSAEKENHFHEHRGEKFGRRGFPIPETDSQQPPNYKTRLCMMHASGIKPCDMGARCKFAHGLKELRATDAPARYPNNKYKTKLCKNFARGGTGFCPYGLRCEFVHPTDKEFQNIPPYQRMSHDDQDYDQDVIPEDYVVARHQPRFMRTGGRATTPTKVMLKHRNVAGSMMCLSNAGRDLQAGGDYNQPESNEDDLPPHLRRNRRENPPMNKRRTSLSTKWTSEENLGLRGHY

[2] = molecular target: T3, RNA-binding protein pos-1 (Caenorhabditis elegans, UniProt G5EF15); assay: disruptors of C. elegans POS-1 RNA interaction – biochemical, fluorescence polarization, dose response (AID 1964);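 note: purified POS-1 fused to maltose binding protein made in E. coli; potency of compounds blocking POS-1 binding to fluorescent RNA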
T3 sequence (G5EF15 whole entry): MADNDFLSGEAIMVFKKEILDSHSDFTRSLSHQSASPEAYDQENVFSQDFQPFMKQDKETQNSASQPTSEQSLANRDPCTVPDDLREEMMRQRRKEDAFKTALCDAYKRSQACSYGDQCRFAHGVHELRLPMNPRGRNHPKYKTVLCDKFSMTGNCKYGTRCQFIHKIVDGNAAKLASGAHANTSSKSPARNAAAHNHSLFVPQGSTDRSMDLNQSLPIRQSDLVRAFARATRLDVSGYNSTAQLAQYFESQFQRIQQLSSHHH

[3] = molecular target: DNA dC->dU-editing enzyme APOBEC-3A (Homo sapiens, UniProt P31941); assay: Dose Response confirmation of small molecule APOBEC3A DNA Deaminase Inhibitors via a fluorescence-based single-stranded DNA deaminase assay. [Related pubchem assays (depositor defined):AID493011, AID493024]; type: functional
[4] = molecular target: DNA dC->dU-editing enzyme APOBEC-3G (Homo sapiens, UniProt Q9HC16); type: functional;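 note: Dose-response counterscreen measuring inhibition of APOBEC3G DNA deaminase activity, run while confirming APOBEC3A inhibitors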
[5] = Trypanosoma cruzi growth suppression in host cells – NIH3T3 host cells, beta-gal luminescence, confirmation (AID 2044); type: functional, cell-based;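 note: intracellular parasites grown in NIH/3T3 mouse fibroblasts as host cells; luminescent beta-galactosidase reporter signal from transgenic T. cruzi replicating inside host cells; inhibitors lower the luminescence signal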
[6] = NIH3T3 cell viability loss – ATP luminescence, mouse fibroblasts, counter-screen, dose response (AID 2010); type: functional, cell-based;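 note: cells exposed to compound for about 90 hours before reading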
Aminopeptidase N = molecular target: T4, Aminopeptidase N (Plasmodium falciparum FcB1/Columbia, UniProt O96935); assay: malaria alanyl aminopeptidase activity blockers – biochemical, fluorogenic H-Leu-NHMec substrate, 1536-well (AID 1445); parameters: species or system Plasmodium falciparum 3D7, 3D7
T4 sequence (O96935 whole entry): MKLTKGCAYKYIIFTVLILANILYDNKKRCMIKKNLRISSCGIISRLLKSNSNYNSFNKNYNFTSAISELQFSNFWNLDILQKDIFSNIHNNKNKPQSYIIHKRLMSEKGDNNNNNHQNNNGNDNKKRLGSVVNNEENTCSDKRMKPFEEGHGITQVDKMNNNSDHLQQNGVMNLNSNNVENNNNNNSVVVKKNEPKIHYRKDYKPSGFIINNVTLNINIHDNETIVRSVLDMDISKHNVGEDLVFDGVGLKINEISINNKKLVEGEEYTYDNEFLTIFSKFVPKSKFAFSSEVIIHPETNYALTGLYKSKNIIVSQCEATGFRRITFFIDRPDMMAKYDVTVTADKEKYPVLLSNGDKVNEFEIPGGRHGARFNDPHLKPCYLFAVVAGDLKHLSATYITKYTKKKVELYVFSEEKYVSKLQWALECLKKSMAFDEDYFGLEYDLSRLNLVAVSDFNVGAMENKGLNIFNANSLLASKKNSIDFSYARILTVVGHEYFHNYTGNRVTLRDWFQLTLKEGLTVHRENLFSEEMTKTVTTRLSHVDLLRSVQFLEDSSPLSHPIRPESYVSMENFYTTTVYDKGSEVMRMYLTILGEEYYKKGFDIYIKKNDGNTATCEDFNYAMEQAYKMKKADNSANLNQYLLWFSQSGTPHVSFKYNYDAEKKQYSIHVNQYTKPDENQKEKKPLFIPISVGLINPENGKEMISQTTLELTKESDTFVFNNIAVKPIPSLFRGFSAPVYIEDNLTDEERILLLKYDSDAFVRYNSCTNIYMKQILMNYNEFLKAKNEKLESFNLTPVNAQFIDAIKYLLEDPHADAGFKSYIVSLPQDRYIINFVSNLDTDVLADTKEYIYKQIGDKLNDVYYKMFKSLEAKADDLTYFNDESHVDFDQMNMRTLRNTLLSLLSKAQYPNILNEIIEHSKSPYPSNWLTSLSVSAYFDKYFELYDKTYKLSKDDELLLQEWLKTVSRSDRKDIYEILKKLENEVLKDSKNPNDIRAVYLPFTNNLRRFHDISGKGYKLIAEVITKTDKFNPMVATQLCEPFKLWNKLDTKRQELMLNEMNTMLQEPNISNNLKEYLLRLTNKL

[7] = molecular target: T5, Histone-lysine N-methyltransferase NSD2 (Homo sapiens, UniProt O96028); type: biochemical
T5 sequence (O96028 whole entry): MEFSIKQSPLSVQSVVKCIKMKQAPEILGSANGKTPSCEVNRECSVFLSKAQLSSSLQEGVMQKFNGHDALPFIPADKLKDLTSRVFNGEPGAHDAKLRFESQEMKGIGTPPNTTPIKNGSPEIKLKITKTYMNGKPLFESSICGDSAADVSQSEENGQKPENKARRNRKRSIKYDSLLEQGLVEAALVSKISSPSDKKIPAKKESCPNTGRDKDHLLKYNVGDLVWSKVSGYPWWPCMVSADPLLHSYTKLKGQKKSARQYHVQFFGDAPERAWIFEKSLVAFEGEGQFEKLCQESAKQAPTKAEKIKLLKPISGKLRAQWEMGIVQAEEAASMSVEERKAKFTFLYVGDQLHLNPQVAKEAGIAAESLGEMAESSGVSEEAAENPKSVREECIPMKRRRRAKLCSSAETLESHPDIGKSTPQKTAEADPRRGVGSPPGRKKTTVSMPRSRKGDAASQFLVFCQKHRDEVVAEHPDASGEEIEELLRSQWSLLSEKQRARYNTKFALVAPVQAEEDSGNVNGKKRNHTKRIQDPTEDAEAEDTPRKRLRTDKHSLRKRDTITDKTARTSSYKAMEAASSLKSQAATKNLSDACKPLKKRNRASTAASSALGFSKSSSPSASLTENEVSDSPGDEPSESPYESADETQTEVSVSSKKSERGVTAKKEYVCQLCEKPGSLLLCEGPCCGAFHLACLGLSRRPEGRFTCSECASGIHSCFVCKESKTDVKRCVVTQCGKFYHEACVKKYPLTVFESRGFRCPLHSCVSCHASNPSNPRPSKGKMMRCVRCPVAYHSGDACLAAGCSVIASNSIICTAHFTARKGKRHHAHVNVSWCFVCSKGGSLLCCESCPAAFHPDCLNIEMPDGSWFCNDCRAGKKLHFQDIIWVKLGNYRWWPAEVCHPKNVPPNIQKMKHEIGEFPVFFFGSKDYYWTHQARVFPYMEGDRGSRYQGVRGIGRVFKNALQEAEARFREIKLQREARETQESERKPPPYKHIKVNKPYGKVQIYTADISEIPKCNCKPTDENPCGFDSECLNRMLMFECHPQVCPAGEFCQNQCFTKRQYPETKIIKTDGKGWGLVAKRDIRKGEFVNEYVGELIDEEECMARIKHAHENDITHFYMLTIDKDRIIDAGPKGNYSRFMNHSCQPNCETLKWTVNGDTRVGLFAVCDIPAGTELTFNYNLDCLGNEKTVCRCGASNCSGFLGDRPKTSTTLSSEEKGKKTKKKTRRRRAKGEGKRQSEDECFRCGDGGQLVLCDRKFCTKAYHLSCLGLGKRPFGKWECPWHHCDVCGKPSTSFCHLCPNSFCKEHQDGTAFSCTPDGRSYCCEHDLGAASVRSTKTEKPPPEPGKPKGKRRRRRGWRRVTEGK

Protein RecA = molecular target: T6, Protein RecA (Mycobacterium tuberculosis, UniProt P9WHJ3); assay: Fluorescence Cell-Free Homogeneous Dose Retest to Identify Inhibitors of RecA-Intein Splicing Activity. [Related pubchem assays (depositor defined):AID2097, AID2223, AID489010, AID492950]; type: functional
T6 sequence (P9WHJ3 whole entry): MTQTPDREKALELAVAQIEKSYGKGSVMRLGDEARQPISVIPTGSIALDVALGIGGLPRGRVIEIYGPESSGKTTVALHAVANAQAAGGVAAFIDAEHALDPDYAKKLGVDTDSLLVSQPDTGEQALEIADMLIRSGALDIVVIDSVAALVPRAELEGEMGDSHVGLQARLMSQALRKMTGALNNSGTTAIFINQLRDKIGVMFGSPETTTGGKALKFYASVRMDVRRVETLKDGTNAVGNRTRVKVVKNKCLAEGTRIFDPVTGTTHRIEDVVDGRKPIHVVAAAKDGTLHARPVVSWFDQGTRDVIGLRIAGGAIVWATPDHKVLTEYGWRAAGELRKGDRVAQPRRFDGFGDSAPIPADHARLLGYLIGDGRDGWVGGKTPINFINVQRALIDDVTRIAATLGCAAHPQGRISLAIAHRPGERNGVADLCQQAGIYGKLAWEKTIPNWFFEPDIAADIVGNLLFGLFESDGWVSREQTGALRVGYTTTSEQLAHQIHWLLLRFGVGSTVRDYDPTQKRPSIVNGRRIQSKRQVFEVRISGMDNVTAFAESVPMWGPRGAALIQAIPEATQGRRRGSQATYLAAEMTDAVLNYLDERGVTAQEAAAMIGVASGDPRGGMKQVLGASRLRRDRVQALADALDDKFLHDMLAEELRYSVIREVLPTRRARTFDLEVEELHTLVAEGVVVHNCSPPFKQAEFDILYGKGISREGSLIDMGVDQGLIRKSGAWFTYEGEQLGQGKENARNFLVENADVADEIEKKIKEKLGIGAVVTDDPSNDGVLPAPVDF

[8] = non-specific 3'UTR reporter inhibition in Clone20-Shn3RL – cell-based, Renilla luciferase, cherry-picked, counter-screen for Shn3 inhibitor project, dose response (AID 624133); type: functional
INS1 = assay: INS-1E survival protection against cytokine death – cell-based, luminescence, retest, dose response (AID 449756); type: functional; details: Rattus norvegicus;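 note: cell death triggered by IL-1 beta plus TNF-alpha plus IFN-gamma mixture; protective hits raise ATP signal compared with cytokine alone wells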
[9] = reduction of Shn3 3'UTR-driven luciferase in osteoblasts – cell-based, Clone20 osteoblasts, firefly luciferase, cherry-picked, dose response (AID 624132); type: functional;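 note: firefly luciferase luminescence from reporter carrying the Shn3 3'UTR in osteoblasts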
[10] = loss of viability in HepG2 cells – cell-based, CellTiter-Glo, cherry-picked, cytotoxicity control for Shn3 inhibitor project, dose response (AID 624134); type: functional

Chain of DNA dC->dU-editing enzyme APOBEC-3G (Q9HC16 whole entry): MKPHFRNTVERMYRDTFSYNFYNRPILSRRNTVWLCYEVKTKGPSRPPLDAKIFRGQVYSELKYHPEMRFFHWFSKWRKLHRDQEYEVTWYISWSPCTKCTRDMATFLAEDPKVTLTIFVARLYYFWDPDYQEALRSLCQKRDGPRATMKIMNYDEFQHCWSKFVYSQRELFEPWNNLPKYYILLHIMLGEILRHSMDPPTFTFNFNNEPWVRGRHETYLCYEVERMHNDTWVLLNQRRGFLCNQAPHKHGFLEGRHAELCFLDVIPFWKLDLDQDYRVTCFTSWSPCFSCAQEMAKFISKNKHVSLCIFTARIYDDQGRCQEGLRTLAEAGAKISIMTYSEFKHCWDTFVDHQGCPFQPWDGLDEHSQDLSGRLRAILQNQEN
Chain of DNA dC->dU-editing enzyme APOBEC-3A (P31941 whole entry): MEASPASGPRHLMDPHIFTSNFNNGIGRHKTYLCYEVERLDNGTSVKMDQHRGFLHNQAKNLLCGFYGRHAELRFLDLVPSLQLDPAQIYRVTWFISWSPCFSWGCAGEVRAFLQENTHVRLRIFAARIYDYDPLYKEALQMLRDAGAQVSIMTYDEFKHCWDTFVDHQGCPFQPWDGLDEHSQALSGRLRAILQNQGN

SMILES	IC50 (Coagulation factor XII)	IC50 [3]	IC50 [4]	further results
COc1cc2ccccc2cc1C(=O)NC(=S)Nc1cc(C(=O)O)ccc1C	> 50 µM (inactive)			EC50 [1]: > 300 µM (not active); EC50 [2]: > 300 µM (not active)
C=CCNC(=O)CN(c1ccc(F)cc1)S(=O)(=O)c1ccc(OC)cc1	> 50 µM (inactive)			
Nn1c(Cc2cccc3ccccc23)nnc1SCCOc1ccc(F)cc1	> 50 µM (inactive)			
COC(=O)C(C)N1C(=O)S/C(=C\c2ccc(-c3ccc(C(=O)O)cc3C)o2)C1=O (centres undefined)		5.66 µM (active)	4.97 µM (active)	
CCN1CCN(c2ccc(S(=O)(=O)N3CCCCC3)cc2NC(=O)c2cccc(C(F)(F)F)c2)CC1		7.71 µM (active)	13.2 µM (active)	EC50 [5]: 1.09 µM (active); EC50 [6]: > 30 µM (not active)
CC[n+]1c(C)n(Cc2ccccc2)c2ccc(C(=O)OC)cc21		2.88 µM (active)	3.62 µM (active)	
O=C(Nc1ccc(NC(=O)c2ccc(Cl)cc2Cl)cc1)c1cccs1		10.6 µM (active)	11.8 µM (active)	
Cc1cc(NC(=O)COC(=O)c2cccc(S(=O)(=O)N(C)C3CCCCC3)c2)no1	> 50 µM (inactive)			
CCOC(=O)C1CCN(S(=O)(=O)c2ccc3c(c2)CC(=O)N3C)CC1		2.81 µM (active)	4 µM (active)	
C[n+]1cccc(C(=O)N/N=C/c2ccc3c(c2)OCO3)c1		3.15 µM (active)	8.99 µM (active)	
C=CCn1c(NC(=O)c2ccc(Br)o2)c(S(=O)(=O)c2ccccc2)c2nc3ccccc3nc21				IC50 (Aminopeptidase N): 17.4 µM (active); AC50 [7]: 10.6 µM (active); EC50 (Protein RecA): > 380 µM (inconclusive)
O=C(Nc1ccc(F)cc1)Nc1cc(OCC(F)(F)F)cc(OCC(F)(F)F)c1	> 50 µM (inactive)			AC50 [8]: 4.59 µM (active); AC50 (INS1): 2.01 µM (active); AC50 [9]: 2.46 µM (active); AC50 [10]: 4.1 µM (active)
Cc1n[nH]c(C)c1CCC(=O)N/N=C/c1cccs1	> 50 µM (inactive)			

— ChEMBL document CHEMBL1201862, “PubChem BioAssay data set” (2004)
